Calls of active or inactive are those of the source.
Experiments:
Type in all cases: functional
[1] = molecular target: Mitogen-activated protein kinase 1 (Homo sapiens, UniProt P28482)
[2] = molecular target: Fibroblast growth factor receptor 3 (Homo sapiens, UniProt P22607)
[3] = molecular target: Receptor tyrosine-protein kinase erbB-4 (Homo sapiens, UniProt Q15303);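 note: ERBB4 member of a kinome-wide kinase profiling panel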
[4] = molecular target: Cell division cycle 7-related protein kinase (Homo sapiens, UniProt O00311);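 note: value obtained from a kinome-wide kinase panel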
[5] = molecular target: ALK tyrosine kinase receptor (Homo sapiens, UniProt Q9UM73);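 note: ALK tested as one member of a kinase panel screen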
[6] = molecular target: Mitogen-activated protein kinase 9 (Homo sapiens, UniProt P45984);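 note: value from a kinome panel profiling assay, MAPK9 panel entry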
[7] = molecular target: Homeodomain-interacting protein kinase 4 (Homo sapiens, UniProt Q8NE63)
[8] = molecular target: Serine/threonine-protein kinase PLK3 (Homo sapiens, UniProt Q9H4B4)
[9] = molecular target: Serine/threonine-protein kinase BRSK1 (Homo sapiens, UniProt Q8TDC3);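 note: measured within a kinome-wide kinase panel, with the target listed as KIAA1811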
[10] = molecular target: Ephrin type-A receptor 2 (Homo sapiens, UniProt P29317);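 note: EPHA2 tested as one member of a kinome-wide kinase panel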
[11] = molecular target: cAMP-dependent protein kinase catalytic subunit PRKX (Homo sapiens, UniProt P51817)
[12] = molecular target: Serine/threonine-protein kinase PLK1 (Homo sapiens, UniProt P53350);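 note: PLK1 measured as one member of a kinome-wide profiling panel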
[13] = molecular target: Casein kinase I isoform delta (Homo sapiens, UniProt P48730);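 note: measured as one member (CSNK1D) of a kinome panel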
[14] = molecular target: Insulin-like growth factor 1 receptor (Homo sapiens, UniProt P08069); assay: Navigating the Kinome. Panel member name: IGF1R
[15] = molecular target: Macrophage colony-stimulating factor 1 receptor (Homo sapiens, UniProt P07333);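 note: value comes from the Navigating the Kinome screening panel, CSF1R member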
[16] = molecular target: Serine/threonine-protein kinase DCLK1 (Homo sapiens, UniProt O15075);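 note: affinity for DCLK1 (listed as DCAMKL1) measured as one member of a kinome-wide kinase profiling panel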
[17] = molecular target: Receptor tyrosine-protein kinase erbB-2 (Homo sapiens, UniProt P04626); assay: Navigating the Kinome. Panel member name: ERBB2
[18] = molecular target: Serine/threonine-protein kinase pim-3 (Homo sapiens, UniProt Q86V86);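 note: value obtained as one member of a broad kinase panel profiling effort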
[19] = molecular target: Serine/threonine-protein kinase PLK4 (Homo sapiens, UniProt O00444);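 note: PLK4 measured as one member of a kinome-wide kinase profiling panel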
[20] = molecular target: MAP kinase-activated protein kinase 3 (Homo sapiens, UniProt Q16644);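 note: value comes from a kinome-wide profiling panel in which MAPKAPK3 is one of the panel members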
[21] = molecular target: Mitogen-activated protein kinase kinase kinase kinase 5 (Homo sapiens, UniProt Q9Y4K4);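 note: measured as one member of a kinome-spanning kinase panel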
[22] = molecular target: Serine/threonine-protein kinase pim-1 (Homo sapiens, UniProt P11309)
[23] = molecular target: Proto-oncogene tyrosine-protein kinase ROS (Homo sapiens, UniProt P08922);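 note: ROS1 tested as one member of a kinome-wide kinase panel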
[24] = molecular target: Dual specificity protein kinase CLK4 (Homo sapiens, UniProt Q9HAZ1)
[25] = molecular target: Misshapen-like kinase 1 (Homo sapiens, UniProt Q8N4C8);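 note: kinome panel screen with MINK as the panel member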
[26] = molecular target: RAC-alpha serine/threonine-protein kinase (Homo sapiens, UniProt P31749);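 note: AKT1 affinity measured as one member of a kinome-wide kinase profiling panel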
[27] = molecular target: Mitogen-activated protein kinase 8 (Homo sapiens, UniProt P45983);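 note: value comes from one member of a kinome-wide kinase profiling panel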
[28] = molecular target: Casein kinase II subunit alpha (Homo sapiens, UniProt P68400)
[29] = molecular target: Calcium/calmodulin-dependent protein kinase type II subunit gamma (Homo sapiens, UniProt Q13555)
[30] = molecular target: Vascular endothelial growth factor receptor 3 (Homo sapiens, UniProt P35916);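 note: value from a kinome-wide profiling panel, with FLT4 as the panel member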
[31] = molecular target: Cyclin-dependent kinase 5 (Homo sapiens, UniProt Q00535);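 note: CDK5 measured as one member of a kinase profiling panel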
[32] = molecular target: Serine/threonine-protein kinase PAK 4 (Homo sapiens, UniProt O96013);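 note: value obtained within a kinome profiling panel in which PAK4 was one of the panel members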
[33] = molecular target: Mitogen-activated protein kinase 12 (Homo sapiens, UniProt P53778);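 note: measured as one member of a kinome-wide kinase profiling panel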
[34] = molecular target: Calcium/calmodulin-dependent protein kinase type II subunit delta (Homo sapiens, UniProt Q13557)
[35] = molecular target: Protein kinase C delta type (Homo sapiens, UniProt Q05655)
[36] = molecular target: Protein-tyrosine kinase 6 (Homo sapiens, UniProt Q13882)
[37] = molecular target: MAP kinase-interacting serine/threonine-protein kinase 2 (Homo sapiens, UniProt Q9HBH9)
[38] = molecular target: Tyrosine-protein kinase Blk (Homo sapiens, UniProt P51451);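 note: obtained as one member of a kinome-wide kinase assay panel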
[39] = molecular target: Cyclin-dependent kinase 1 (Homo sapiens, UniProt P06493);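 note: Kinome-wide panel profiling, with the target listed as panel member CDC2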
[40] = molecular target: Serine/threonine-protein kinase 3 (Homo sapiens, UniProt Q13188);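 note: measured as one member of a kinome-wide kinase panel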
[41] = molecular target: Tyrosine-protein kinase Srms (Homo sapiens, UniProt Q9H3Y6);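 note: SRMS measured as one member of a kinome-wide kinase profiling panel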
[42] = molecular target: Testis-specific serine/threonine-protein kinase 2 (Homo sapiens, UniProt Q96PF2);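 note: part of the Navigating the Kinome panel, target entry STK22B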
[43] = molecular target: Casein kinase I isoform alpha (Homo sapiens, UniProt P48729)
[44] = molecular target: Casein kinase I isoform gamma-1 (Homo sapiens, UniProt Q9HCP0);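 note: measured as the CSNK1G1 member of a kinome profiling panel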
[45] = molecular target: Dual specificity tyrosine-phosphorylation-regulated kinase 4 (Homo sapiens, UniProt Q9NR20)
[46] = molecular target: Homeodomain-interacting protein kinase 2 (Homo sapiens, UniProt Q9H2X6);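 note: measured within a kinome-wide kinase profiling panel, HIPK2 being one panel member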
[47] = molecular target: Tyrosine-protein kinase JAK2 (Homo sapiens, UniProt O60674);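 note: JAK2 tested as one member of a kinase panel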

Measured: Ki

Sequence of Macrophage colony-stimulating factor 1 receptor (P07333 whole entry): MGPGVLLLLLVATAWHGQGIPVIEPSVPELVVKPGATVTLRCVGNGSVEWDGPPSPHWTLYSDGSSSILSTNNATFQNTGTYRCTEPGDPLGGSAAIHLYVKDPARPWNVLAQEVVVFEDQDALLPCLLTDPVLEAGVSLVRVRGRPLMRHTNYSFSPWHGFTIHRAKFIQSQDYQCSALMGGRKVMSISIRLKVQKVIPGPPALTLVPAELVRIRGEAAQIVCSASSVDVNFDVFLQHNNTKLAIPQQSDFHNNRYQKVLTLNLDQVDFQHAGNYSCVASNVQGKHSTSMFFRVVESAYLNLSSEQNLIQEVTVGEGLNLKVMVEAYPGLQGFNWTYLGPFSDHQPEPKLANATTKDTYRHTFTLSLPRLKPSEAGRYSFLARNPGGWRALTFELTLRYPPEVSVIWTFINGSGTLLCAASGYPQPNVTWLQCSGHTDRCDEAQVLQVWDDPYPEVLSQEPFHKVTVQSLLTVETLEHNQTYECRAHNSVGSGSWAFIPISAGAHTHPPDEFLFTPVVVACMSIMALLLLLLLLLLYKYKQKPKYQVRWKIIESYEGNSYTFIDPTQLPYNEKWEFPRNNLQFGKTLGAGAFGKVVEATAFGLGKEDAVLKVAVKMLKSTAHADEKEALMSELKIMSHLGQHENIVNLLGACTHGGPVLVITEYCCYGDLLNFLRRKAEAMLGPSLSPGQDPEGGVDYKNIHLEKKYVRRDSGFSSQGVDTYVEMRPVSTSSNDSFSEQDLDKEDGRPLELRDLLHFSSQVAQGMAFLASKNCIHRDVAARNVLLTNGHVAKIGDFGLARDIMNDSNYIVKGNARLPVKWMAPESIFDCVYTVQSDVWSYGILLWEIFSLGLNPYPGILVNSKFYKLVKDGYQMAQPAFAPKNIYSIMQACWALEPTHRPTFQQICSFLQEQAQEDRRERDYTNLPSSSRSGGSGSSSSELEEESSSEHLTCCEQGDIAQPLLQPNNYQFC
Sequence of Mitogen-activated protein kinase 12 (P53778 whole entry): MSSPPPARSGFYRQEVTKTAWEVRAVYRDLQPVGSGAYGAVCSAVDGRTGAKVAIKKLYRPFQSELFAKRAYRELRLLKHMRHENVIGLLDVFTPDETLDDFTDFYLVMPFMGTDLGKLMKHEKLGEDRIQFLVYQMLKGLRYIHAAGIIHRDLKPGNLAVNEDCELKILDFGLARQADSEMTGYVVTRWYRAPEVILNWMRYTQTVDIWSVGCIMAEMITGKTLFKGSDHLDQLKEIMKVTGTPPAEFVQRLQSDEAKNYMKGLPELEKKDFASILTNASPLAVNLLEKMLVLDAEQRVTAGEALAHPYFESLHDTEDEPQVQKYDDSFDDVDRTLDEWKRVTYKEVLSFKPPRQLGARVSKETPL
Sequence of Proto-oncogene tyrosine-protein kinase ROS (P08922 whole entry): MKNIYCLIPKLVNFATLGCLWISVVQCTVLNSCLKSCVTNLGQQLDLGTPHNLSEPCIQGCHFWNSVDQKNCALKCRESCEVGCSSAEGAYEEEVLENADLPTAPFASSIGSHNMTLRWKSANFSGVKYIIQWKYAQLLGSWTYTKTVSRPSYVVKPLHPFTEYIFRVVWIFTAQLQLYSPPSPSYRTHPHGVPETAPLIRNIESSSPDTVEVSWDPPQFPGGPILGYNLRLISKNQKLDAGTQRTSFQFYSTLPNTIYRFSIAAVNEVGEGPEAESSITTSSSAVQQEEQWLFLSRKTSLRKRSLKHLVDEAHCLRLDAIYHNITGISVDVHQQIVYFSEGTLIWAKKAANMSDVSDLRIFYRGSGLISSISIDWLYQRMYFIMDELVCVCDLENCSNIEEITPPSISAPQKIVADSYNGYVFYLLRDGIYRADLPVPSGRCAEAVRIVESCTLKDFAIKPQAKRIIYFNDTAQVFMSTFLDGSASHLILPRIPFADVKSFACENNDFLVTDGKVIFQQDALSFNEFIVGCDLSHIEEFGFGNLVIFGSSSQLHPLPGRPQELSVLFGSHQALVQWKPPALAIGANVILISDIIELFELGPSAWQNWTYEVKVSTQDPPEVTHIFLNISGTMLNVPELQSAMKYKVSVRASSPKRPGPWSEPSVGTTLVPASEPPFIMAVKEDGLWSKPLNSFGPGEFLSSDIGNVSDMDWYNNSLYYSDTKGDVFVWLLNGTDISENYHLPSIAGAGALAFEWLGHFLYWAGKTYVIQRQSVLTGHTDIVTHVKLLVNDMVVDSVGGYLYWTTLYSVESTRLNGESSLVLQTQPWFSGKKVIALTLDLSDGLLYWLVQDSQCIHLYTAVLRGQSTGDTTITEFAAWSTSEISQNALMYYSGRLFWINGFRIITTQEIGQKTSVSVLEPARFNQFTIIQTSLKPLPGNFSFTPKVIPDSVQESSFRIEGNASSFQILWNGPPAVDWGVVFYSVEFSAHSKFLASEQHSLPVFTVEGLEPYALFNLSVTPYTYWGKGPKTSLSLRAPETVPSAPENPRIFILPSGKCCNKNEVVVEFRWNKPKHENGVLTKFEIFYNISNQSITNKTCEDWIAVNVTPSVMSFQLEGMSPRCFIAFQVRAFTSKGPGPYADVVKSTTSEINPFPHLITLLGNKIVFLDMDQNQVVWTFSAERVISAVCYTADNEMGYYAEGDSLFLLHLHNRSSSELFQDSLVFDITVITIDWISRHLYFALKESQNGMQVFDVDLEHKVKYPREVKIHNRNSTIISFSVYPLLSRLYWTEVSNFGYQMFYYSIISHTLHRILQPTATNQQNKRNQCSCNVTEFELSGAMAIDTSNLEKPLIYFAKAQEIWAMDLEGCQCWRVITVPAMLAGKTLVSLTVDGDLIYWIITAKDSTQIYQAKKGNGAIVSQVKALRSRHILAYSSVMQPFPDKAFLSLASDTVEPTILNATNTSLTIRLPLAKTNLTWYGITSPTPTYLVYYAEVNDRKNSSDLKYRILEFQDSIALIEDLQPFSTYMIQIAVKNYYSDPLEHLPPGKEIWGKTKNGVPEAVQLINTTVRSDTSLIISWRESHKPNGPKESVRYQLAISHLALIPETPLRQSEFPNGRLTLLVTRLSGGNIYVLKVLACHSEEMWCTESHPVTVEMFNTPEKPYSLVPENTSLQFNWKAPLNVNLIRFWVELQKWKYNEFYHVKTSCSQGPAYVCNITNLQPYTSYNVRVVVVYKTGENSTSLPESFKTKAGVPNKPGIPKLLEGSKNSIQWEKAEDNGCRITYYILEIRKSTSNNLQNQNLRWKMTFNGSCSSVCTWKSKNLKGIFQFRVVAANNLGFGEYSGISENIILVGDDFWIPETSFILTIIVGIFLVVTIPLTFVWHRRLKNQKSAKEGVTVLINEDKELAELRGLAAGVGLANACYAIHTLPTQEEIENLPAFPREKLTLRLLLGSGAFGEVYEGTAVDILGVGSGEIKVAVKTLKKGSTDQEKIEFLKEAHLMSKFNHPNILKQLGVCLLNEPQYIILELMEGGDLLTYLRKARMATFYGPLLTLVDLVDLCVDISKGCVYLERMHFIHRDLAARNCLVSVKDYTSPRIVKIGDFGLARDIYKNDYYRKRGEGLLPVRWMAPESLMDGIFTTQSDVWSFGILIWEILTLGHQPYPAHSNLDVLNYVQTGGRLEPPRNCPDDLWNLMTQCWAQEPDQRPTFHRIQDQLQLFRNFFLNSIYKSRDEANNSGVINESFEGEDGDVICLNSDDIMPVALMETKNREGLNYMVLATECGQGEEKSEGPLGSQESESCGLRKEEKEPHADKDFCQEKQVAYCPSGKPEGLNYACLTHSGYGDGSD
Sequence of Homeodomain-interacting protein kinase 2 (Q9H2X6 whole entry): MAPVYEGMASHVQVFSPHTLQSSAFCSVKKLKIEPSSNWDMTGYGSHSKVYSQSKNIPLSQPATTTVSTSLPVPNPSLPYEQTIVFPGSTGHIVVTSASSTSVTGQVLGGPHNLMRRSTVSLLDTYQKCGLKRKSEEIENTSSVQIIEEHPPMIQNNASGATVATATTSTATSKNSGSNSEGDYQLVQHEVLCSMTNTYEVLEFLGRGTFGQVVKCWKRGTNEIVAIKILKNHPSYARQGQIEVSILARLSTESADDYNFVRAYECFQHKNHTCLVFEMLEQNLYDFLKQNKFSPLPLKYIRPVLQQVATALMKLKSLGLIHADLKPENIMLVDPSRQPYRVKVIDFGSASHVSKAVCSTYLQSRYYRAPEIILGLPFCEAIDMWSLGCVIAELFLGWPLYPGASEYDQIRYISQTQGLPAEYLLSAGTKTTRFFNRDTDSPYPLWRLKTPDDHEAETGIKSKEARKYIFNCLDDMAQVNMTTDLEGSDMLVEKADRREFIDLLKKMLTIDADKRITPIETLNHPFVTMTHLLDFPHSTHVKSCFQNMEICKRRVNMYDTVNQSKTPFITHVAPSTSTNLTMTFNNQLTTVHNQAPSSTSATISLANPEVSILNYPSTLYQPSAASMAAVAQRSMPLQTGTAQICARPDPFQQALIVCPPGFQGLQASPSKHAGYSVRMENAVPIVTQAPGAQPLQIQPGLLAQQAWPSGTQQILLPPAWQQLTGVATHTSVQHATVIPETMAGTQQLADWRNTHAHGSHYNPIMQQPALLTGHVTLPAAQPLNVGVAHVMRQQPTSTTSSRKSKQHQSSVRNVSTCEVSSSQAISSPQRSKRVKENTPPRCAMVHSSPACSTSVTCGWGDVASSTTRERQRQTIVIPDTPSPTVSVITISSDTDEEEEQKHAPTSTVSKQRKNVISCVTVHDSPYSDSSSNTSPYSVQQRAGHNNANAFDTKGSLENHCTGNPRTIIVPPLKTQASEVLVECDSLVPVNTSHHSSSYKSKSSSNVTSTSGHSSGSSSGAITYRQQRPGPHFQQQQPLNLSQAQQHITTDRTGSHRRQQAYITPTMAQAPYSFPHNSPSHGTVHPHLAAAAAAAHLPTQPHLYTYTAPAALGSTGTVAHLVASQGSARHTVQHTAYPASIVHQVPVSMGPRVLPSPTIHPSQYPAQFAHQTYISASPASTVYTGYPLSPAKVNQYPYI

NC(=O)Cn1cc(-c2cc(-c3cc4ccccc4s3)c3[nH]ncc3c2)c2nc(N)ncc21
active: [4] 126 nM | [6] 1.26 µM | [9] 2 µM | [11] 39.8 nM | [13] 3.16 µM | [17] 1 µM | [18] 3.16 µM | [19] 200 nM | [20] 10 µM | [21] 631 nM | [22] 3.16 µM | [24] 25.1 nM | [25] 501 nM | [27] 126 nM | [29] 6.31 µM | [30] 2.51 µM | [31] 794 nM | [33] 5.01 µM | [34] 3.16 µM | [35] 5.01 µM | [37] 100 nM | [39] 1.58 µM | [40] 2.51 µM | [45] 2 µM
inactive: [1] > 7.94 µM | [2] > 2 µM | [3] > 3.98 µM | [5] > 1.26 µM | [7] > 7.94 µM | [8] > 7.94 µM | [10] > 3.16 µM | [12] > 7.94 µM | [14] > 2 µM | [15] > 2.51 µM | [16] > 10 µM | [23] > 2 µM | [26] > 7.94 µM | [28] > 6.31 µM | [32] > 5.01 µM | [36] > 2.51 µM | [38] > 1.58 µM | [41] > 1.58 µM | [42] > 1.58 µM | [43] > 6.31 µM | [44] > 6.31 µM | [46] > 3.16 µM | [47] > 1.58 µM

— ChEMBL document CHEMBL1201862, “PubChem BioAssay data set” (2004)
